Laboratory results reported in US6548553B2, “Styryl sulfone anticancer agents” (Temple University-of the Commonwealth System of Higher …, priority 1997, dated 2003).

Tests used:
Type in all cases: cell-based
SK-MEL-28 = assay: GI50 growth inhibition, trypan blue cell count; conditions: Homo sapiens, melanoma, 96 hours after addition
Method: The human carcinoma cell lines listed in Table 5 below were purchased from ATCC and grown in an appropriate growth medium containing 10% fetal bovine serum (FBS) and antibiotics. The cells were plated at a cell density of 1.0×10^5 cells per […] in 6-well dishes. The cells were treated with various concentrations of (E)-fluorostyryl-4-bromobenzylsulfone 24 hours after plating in a total volume of 1 ml of medium using dimethylsulfoxide (DMSO) as a solvent for the compound. Control cells were treated with DMSO alone. The total number of viable cells was determined 96 hours after the addition of the compound by counting the cells in each well using a hemacytometer after trypan blue staining (viable cells exclude the stain). The counts were done in duplicate and the average was graphed in FIG. 8 as a percentage of the non-treated control group.

[1] = tested on: LnCaP, BT-20 and MCF-7 cells; assay: Trypan blue exclusion viability/proliferation assay (dose and time course); conditions: 2.5 mM (FIG. 1A) and 5.0 mM (FIG. 1B), 48 hours of treatment
ERK-2 = assay: Western blot analysis of treated cell lysates with ERK-2 antibody; conditions: 2.5 and 5.0 μM, 48 hours; NIH3T3, LnCaP or MCF-7
Method: Cell lysates of FRI-20-treated cells were prepared for Western Blot analysis as follows. NIH3T3, LnCaP or MCF-7 cells were seeded at a density of 2×10^5 cells/per well in a six-well plate and allowed to grow for 24 hours. Fresh medium was added to each well 2 hours before treatment with FRI-20. The compound was dissolved in DMSO to make a 2 mM stock solution and added to the medium (2 ml) to obtain a final concentration of 2.5 and 5.0 μM. After 48 hours at 37° C., the cells were washed twice with 10 ml of ice cold phosphate-buffered saline and harvested in 400 μl of lysis buffer containing 25 mM HEPES (pH 7.6), 0.1% Triton X-100, 300 mM NaCl, 1.5 mM MgCl2, 20 mM β-glycerophosphate, 100 μM Na3VO4, 0.2 mM EDTA, 0.5 mM dithiothreitol, 2 μg/ml aprotinin, 2 μg/ml leupeptin, 100 μM […] and 1 mM benzamidine. The cell lysates were kept on ice for 30 minutes and centrifuged for 10 minutes in a microcentrifuge (16000 X g). The cell lysates were separated from the debris and normalized for protein content.
Western Blot analysis was carried out on the drug- and mock-treated cell lysates with ERK-2 antibody. Equal amounts of total protein (100 μg) were loaded in each lane of a SDS-PAGE gel (10-12%) and transferred to Immobilon-P (Millipore, USA). […] The antibody was detected using the ECL Western blotting analysis kit (Amersham) following the manufacturer's instructions.

[2] = tested on: 361 breast tumor cell line; assay: Trypan blue exclusion viability assay, breast tumor cell line; conditions: 2.5 and 5.0 μM, 48 hours
Method: (§1) The effect of FR-20 on the growth of normal and tumor cells of breast and prostate was examine utilizing nine cell lines: NIH/3T3 and HFL (normal fibroblast cell lines); MCF-7 and 361 ([…] breast tumor cell lines); BT-20, 435 and SKBR-3 ([…] breast tumor cell lines); LnCaP (androgen sensitive prostate tumor cell line); PC-3 and DU-145 (androgen insensitive prostate tumor cell line).
(§2) The cells were grown as in Example 22, A. FR-20 was dissolved in DMSO and added to the cells at 2.5 μM and 5.0 μM concentration. To control cells, DMSO was added equivalent to the volume of solvent (DMSO) present at the highest concentration of the compound. The activity of the compound was evaluated after 48 hours by Trypan blue exclusion. […] Nearly 50% of SKBR-3 and BT-20 cells were dead at 2.5 μM and 75% at 5.0 μM concentration of the compound. […] FRI-20 had profound effect on the viability of androgen-dependent LnCaP prostate tumor cell line when compared to androgen-independent DU-145 and PC-3 prostate cell lines. At […] FRI-20, 80% of LnCaP, 40% of PC-3 and 20% of DU-145 cells were killed. At […] FRI-20, 72% of LnCaP, 47% of PC-3 and 40% of DU-145 were killed (FIG. 3B).

[3] = Trypan blue exclusion viability assay, normal fibroblasts; set-up: viability at 48 h: dose or concentration left out as unconfirmed; conditions: mouse, NIH3T3 cells (normal fibroblasts)
Method: The effect of the styryl sulfones on the growth of normal and tumor cells of breast and prostate was examine utilizing four cell lines, NIH3T3, MCF-7, BT-20 and LnCap. NIH/3T3 cells represent normal fibroblasts while LnCap is an androgen-dependent prostate tumor cell line. MCF-7 is an estrogen-responsive breast tumor cell line, while BT-20 is an estrogen-unresponsive breast tumor cell line. MCF-7 and BT-20 were grown in Dulbecco's modified Eagle's medium (DMEM) containing 10% fetal bovine serum supplemented with penicillin and streptomycin. LnCaP were cultured in RPMI with 10% fetal bovine serum containing penicillin and streptomycin. NIH3T3 cells were grown in DMEM containing 10% calf serum supplemented with penicillin and streptomycin. All cell cultures were maintained at 37° C. in a humidified atmosphere of 5% CO2.
The compounds identified in Tables 2, 3 and 4 inhibited cell growth and induced cell death, to varying degrees. The tables list the percent viable LnCap and MCF-7 cells treated with 5.0 μM compound.
The percentage of living cells was determined by Trypan blue exclusion. The control cells were treated with DMSO to determine the effect of solvent on cells. […] Under these conditions, only 2-3% of NIH3T3 cells were non-viable at both the concentrations. […] After 48 hours incubation, 60-75% of the LnCaP, BT-20 and MCF-7 cells were dead at […] FRI-20 concentration, whereas more than 90% of NIH3T3 cells were viable (FIG. 2A).

[4] = Trypan blue exclusion viability assay, normal fibroblast cell lines; conditions: mouse (NIH3T3), human (HFL), NIH3T3 and HFL cells (normal fibroblast cell lines), 2.5 and 5.0 μM, read-out: percent viability
Method: as §1, §2

DU-145 cells = assay: Trypan blue exclusion viability assay, prostate tumor cell line; set-up: unit of the concentration uncertain; conditions: 48 hours
Method: as §1, §2

[5] = tested on: LnCaP prostate tumor cell line; assay: as above; set-up: unit of the concentration uncertain; conditions: 48 hours
Method: as §1, §2

PC-3 cells = assay: as above; set-up: unit of the concentration uncertain; conditions: 48 hours
Method: as §1, §2

O=S(=O)(/C=C/c1ccc(F)cc1)Cc1ccc(Cl)cc1 [Example 11, E-4-fluorostyryl 4-chlorobenzyl Sulfone]
GI50 (SK-MEL-28): 2 µM
inhibition of growth and induction of death of LnCaP, BT-20 and MCF-7 cells [1]: substantially inhibit the growth and induce the death
amount of ERK-2 protein in drug- and mock-treated lysates (ERK-2): the same amount of protein in both lysates
viable cells [2]: 50-75%
cytotoxicity at 48 h ([3]; 250 nM and 500 nM, 48 hours, read-out: non-viable NIH3T3 cells): 2 to 3%
viability at 48 h, 5 µM ([3]; 5 μM): > 80%
viability at 48 h ([3]; 48 hours incubation, read-out: viable NIH3T3 cells): > 80%
viability at 48 h [4]: 85 to 90%
cells killed (DU-145 cells; 2.5 µM): 20%
cells killed (DU-145 cells; 5.0 µM): 40%
cells killed ([5]; 2.5 µM): 80%
cells killed ([5]; 5.0 µM): 72%
cells killed (PC-3 cells; 2.5 µM): 40%
cells killed (PC-3 cells; 5.0 µM): 47%
